Measurements from patent US10745346B2, “Agonists of protein tyrosine phosphatase SHP-1” (priority 2015, dated 2020).

Tests used:
[1] = tested on: PLC5 cells (a hepatocellular carcinoma cell line); assay: Cytotoxicity, MTT cell viability assay; type: cell-based; conditions: 72 h exposure
Method: PLC5 cells (a hepatocellular carcinoma cell line) were seeded at 5×10^3 cells per well in 96-well plates. Then, cells were exposed to SC derivatives at the indicated doses for 72 h. After that, cells were incubated with MTT (1 mg/ml) (Sigma-Aldrich, St. Louis, Mo.) for 2 h at 37° C. Cell viability was then assessed by measuring the absorbance at 570 nm using a microplate reader.

[2] = biological target: Recombinant SHP-1 protein (Homo sapiens, UniProt P29350); assay: SHP-1 phosphatase activity assay (RediPlate 96 EnzChek Tyrosine Phosphatase Assay kit); type: biochemical; conditions: SC derivatives at 1 μM for 2 hr; recombinant SHP-1 25 ng; control DMSO = 100; mean±SD (N=3)
Method: Effects of SC Derivatives on Phosphatase Activity in Recombinant SHP-1 RediPlate 96 EnzChek Tyrosine Phosphatase Assay kit (R-22067) was used for SHP-1 activity assay (Molecular Probes). Recombinant SHP-1 protein (25 ng) was reacted with SC derivatives at 1 μM for 2 hr. Then the SHP-1 phosphatase activity assay was performed according to the user's manual and the absorbance was measured at 465 nm. The control group was DMSO, which functioned as the solvent of the SC derivatives. The values were expressed by mean±SD (N=3).

Sequence of Recombinant SHP-1 protein (P29350 whole entry): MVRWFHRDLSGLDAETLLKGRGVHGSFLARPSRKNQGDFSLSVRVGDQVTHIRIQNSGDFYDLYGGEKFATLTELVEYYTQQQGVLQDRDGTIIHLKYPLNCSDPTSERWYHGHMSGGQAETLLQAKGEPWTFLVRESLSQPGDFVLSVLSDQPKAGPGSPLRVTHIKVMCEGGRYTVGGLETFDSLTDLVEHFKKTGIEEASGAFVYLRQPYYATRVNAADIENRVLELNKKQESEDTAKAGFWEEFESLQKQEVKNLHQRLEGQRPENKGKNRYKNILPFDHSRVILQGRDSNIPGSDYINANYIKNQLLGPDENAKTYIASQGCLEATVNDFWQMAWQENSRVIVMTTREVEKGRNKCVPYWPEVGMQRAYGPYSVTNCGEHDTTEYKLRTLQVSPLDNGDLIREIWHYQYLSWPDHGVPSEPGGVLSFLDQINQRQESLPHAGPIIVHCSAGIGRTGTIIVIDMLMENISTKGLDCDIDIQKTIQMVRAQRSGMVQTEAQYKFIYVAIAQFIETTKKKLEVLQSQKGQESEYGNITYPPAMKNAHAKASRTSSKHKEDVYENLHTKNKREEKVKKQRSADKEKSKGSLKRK

Structure (SMILES)	SHP-1 Activity (% of control) [2]	IC50 [1]
Cc1ccc(NC(=O)Nc2ccc(C)c(Oc3ccc(C#N)c(Cl)c3)c2)cc1Oc1ccc(C#N)nc1 [compound 103, 1-(3-(3-chloro-4-cyanophenoxy)-4-methylphenyl)-3-(3-((6-cyanopyridin-3-yl)oxy)51-4-methylphenyl)urea]	123.75 ± 32.58 % of control	190 nM
Cc1ccc(NC(=O)Nc2ccc(C)c(Oc3cnc(C#N)c(F)c3)c2)cc1Oc1cnc(C#N)c(F)c1 [compound 104, 1,3-bis(3-((6-cyano-5-fluoropyridin-3-yl)oxy)-4-methylphenyl)urea]	139.74 ± 4.92 % of control	> 10000 nM
N#Cc1ccc(Oc2ccc(NC(=O)Nc3ccc(Oc4ccc(C#N)cc4)cc3F)c(F)c2)cc1 [compound 106, 1,3-bis(4-(4-cyanophenoxy)-2-fluorophenyl)urea]	147.13 ± 8.51 % of control	> 10000 nM
Cc1ccc(NC(=O)Nc2cccc3ccc(Oc4ccc(C#N)cc4)cc23)cc1Oc1ccc(C#N)cc1 [compound 107, 1-(3-(4-cyanophenoxy)-4-methylphenyl)-3-(7-(4-cyanophenoxy)naphthalen-1-yl)urea]	149.03 ± 14.47 % of control	> 10000 nM
N#Cc1ccc(Oc2ccc(NC(=O)Nc3ccc(Cl)c(C(F)(F)F)c3)c(F)c2)cc1Cl [compound 108, 1-(4-chloro-3-(trifluoromethyl)phenyl)-3-(4-(3-chloro-4-cyanophenoxy)-2-fluorophenyl)urea]	133.11 ± 12.03 % of control	> 10000 nM
N#Cc1ccc(Oc2ccc3cccc(NC(=O)Nc4ccc(Cl)c(C(F)(F)F)c4)c3c2)cc1Cl [compound 109, 1-(4-chloro-3-(trifluoromethyl)phenyl)-3-(7-(3-chloro-4-cyanophenoxy)naphthalen-1-yl)urea]	143.61 ± 5.36 % of control	2070 nM
Cc1ccc(NC(=O)Nc2cc(Oc3ccc(C#N)cc3)ccc2F)cc1Oc1ccc(C#N)nc1 [compound 110, 1-(5-(4-cyanophenoxy)-2-fluorophenyl)-3-(3-((6-cyanopyridin-3-yl)oxy)-4-methylphenyl)urea]	146.29 ± 12.80 % of control	7650 nM
N#Cc1ccc(Oc2cc(NC(=O)Nc3ccc(F)c(Oc4ccc(C#N)cc4)c3)ccc2F)cc1 [compound 112, 1,3-bis(3-(4-cyanophenoxy)-4-fluorophenyl)urea]	146.18 ± 14.74 % of control	490 nM
Cc1ccc(NC(=O)Nc2ccc(C)c(Oc3ccc(C#N)c4ccccc34)c2)cc1Oc1ccc(C#N)c2ccccc12 [compound 113, 1,3-bis(3-((4-cyanonaphthalen-1-yl)oxy)-4-methylphenyl)urea]	153.49 ± 13.55 % of control	> 10000 nM
N#Cc1ccc(Oc2ccc(Cl)c(NC(=O)Nc3cc(C(F)(F)F)cc(C(F)(F)F)c3)c2)cc1 [compound 141, 1-(3,5-bis(trifluoromethyl)phenyl)-3-(2-chloro-5-(4-cyanophenoxy)phenyl) urea]	273.26 ± 86.35 % of control	280 nM
C#Cc1cccc(NC(=O)Nc2cc(Oc3ccc(C#N)cc3)ccc2F)c1 [compound 144, 1-(5-(4-cyanophenoxy)-2-fluorophenyl)-3-(3-ethynylphenyl)urea]	159.94 ± 30.14 % of control	1790 nM
N#CCc1ccc(NC(=O)Nc2cc(Oc3ccc(C#N)cc3)ccc2F)cc1 [compound 146, 1-(4-(cyanomethyl)phenyl)-3-(5-(4-cyanophenoxy)-2-fluorophenyl)urea]	139.68 ± 6.63 % of control	2590 nM
N#CCc1ccc(NC(=O)Nc2ccc(Cl)c(Oc3ccc(C#N)cc3)c2)cc1 [compound 149, 1-(4-chloro-3-(4-cyanophenoxy)phenyl)-3-(4-(cyanomethyl)phenyl)urea]	140.90 ± 6.65 % of control	1380 nM
C#Cc1cccc(NC(=O)Nc2ccc(F)c(Oc3ccc(C#N)cc3)c2)c1 [compound 150, 1-(3-(4-cyanophenoxy)-4-fluorophenyl)-3-(3-ethynylphenyl)urea]	129.59 ± 59 % of control	2230 nM

Now from value to compound, other results behind:

SHP-1 Activity (% of control) [2]	Structure (SMILES)	IC50 [1]
424.63 ± 10.66 % of control	N#Cc1ccc(Oc2ccc(F)c(NC(=O)Nc3ccc(Cl)c(C(F)(F)F)c3)c2)cc1 [compound 105, 1-(4-chloro-3-(trifluoromethyl)phenyl)-3-(5-(4-cyanophenoxy)-2-fluorophenyl)urea]	470 nM
156.55 ± 5.99 % of control	N#Cc1ccc(Oc2cc(NC(=O)Nc3ccc(Cl)c(C(F)(F)F)c3)ccc2F)cc1 [compound 111, 1-(4-chloro-3-(trifluoromethyl)phenyl)-3-(3-(4-cyanophenoxy)-4-fluorophenyl)urea]	240 nM
156.85 ± 6.04 % of control	Cc1ccc(NC(=O)Nc2ccc(Cl)c(C(F)(F)F)c2)cc1Oc1ccc(C#N)c2ccccc12 [compound 114, 1-(4-chloro-3-(trifluoromethyl)phenyl)-3-(3-((4-cyanonaphthalen-1-yl)oxy)-4-methylphenyl)urea]	760 nM
327.86 ± 34.79 % of control	Cc1ccc(NC(=O)Nc2cc(C(F)(F)F)cc(C(F)(F)F)c2)cc1Oc1ccc(C#N)cc1 [compound 131, 1-(3,5-bis(trifluoromethyl)phenyl)-3-(3-(4-cyanophenoxy)-4-methylphenyl) urea]	230 nM
151.59 ± 9.68 % of control	Cc1ccc(NC(=O)Nc2ccc(F)c(C(F)(F)F)c2)cc1Oc1ccc(C#N)cc1 [compound 132, 1-(3-(4-cyanophenoxy)-4-methylphenyl)-3-(4-fluoro-3-(trifluoromethyl)phenyl)urea]	640 nM
253.18 ± 26.17 % of control	Cc1ccc(NC(=O)Nc2ccc(Cl)c(C(F)(F)F)c2)cc1Oc1ccc(C#N)cc1 [compound 133, 1-(4-chloro-3-(trifluoromethyl)phenyl)-3-(3-(4-cyanophenoxy)-4-methylphenyl)urea]	440 nM
152.29 ± 7.92 % of control	Cc1ccc(NC(=O)Nc2cccc(C(F)(F)F)c2)cc1Oc1ccc(C#N)cc1 [compound 134, 1-(3-(4-cyanophenoxy)-4-methylphenyl)-3-(3-(trifluoromethyl)phenyl)urea]	740 nM
153.32 ± 14.65 % of control	Cc1ccc(NC(=O)Nc2ccc(CC#N)cc2)cc1Oc1ccc(C#N)cc1 [compound 135, 1-(4-(cyanomethyl)phenyl)-3-(3-(4-cyanophenoxy)-4-methylphenyl)urea]	1850 nM
180.35 ± 35 % of control	N#Cc1ccc(Oc2cc(NC(=O)Nc3ccc(F)c(C(F)(F)F)c3)ccc2Cl)cc1 [compound 137, 1-(4-chloro-3-(4-cyanophenoxy)phenyl)-3-(4-fluoro-3-(trifluoromethyl)phenyl)urea]	490 nM
196.54 ± 22.4 % of control	N#Cc1ccc(Oc2cc(NC(=O)Nc3cccc(C(F)(F)F)c3)ccc2Cl)cc1 [compound 138, 1-(4-chloro-3-(4-cyanophenoxy)phenyl)-3-(3-(trifluoromethyl)phenyl)urea]	570 nM
280.62 ± 16.62 % of control	N#Cc1ccc(Oc2cc(NC(=O)Nc3ccc(Cl)c(C(F)(F)F)c3)ccc2Cl)cc1 [compound 139, 1-(4-chloro-3-(4-cyanophenoxy)phenyl)-3-(4-chloro-3-(trifluoromethyl)phenyl)urea]	310 nM
140.81 ± 2.48 % of control	C#Cc1cccc(NC(=O)Nc2ccc(Cl)c(Oc3ccc(C#N)cc3)c2)c1 [compound 140, 1-(4-chloro-3-(4-cyanophenoxy)phenyl)-3-(3-ethynylphenyl)urea]	830 nM
249.66 ± 5.81 % of control	N#Cc1ccc(Oc2ccc(Cl)c(NC(=O)Nc3ccc(Cl)c(C(F)(F)F)c3)c2)cc1 [compound 142, 1-(4-chloro-3-(trifluoromethyl)phenyl)-3-(2-chloro-5-(4-cyanophenoxy)phenyl)urea]	450 nM
198.37 ± 32.5 % of control	N#Cc1ccc(Oc2ccc(Cl)c(NC(=O)Nc3ccc(F)c(C(F)(F)F)c3)c2)cc1 [compound 143, 1-(2-chloro-5-(4-cyanophenoxy)phenyl)-3-(4-fluoro-3-(trifluoromethyl)phenyl)urea]	610 nM
168.15 ± 1.97 % of control	N#Cc1ccc(Oc2ccc(F)c(NC(=O)Nc3ccc(F)c(C(F)(F)F)c3)c2)cc1 [compound 145, 1-(5-(4-cyanophenoxy)-2-fluorophenyl)-3-(4-fluoro-3-(trifluoromethyl)phenyl)urea]	850 nM
363.95 ± 18.11 % of control	N#Cc1ccc(Oc2cc(NC(=O)Nc3cc(C(F)(F)F)cc(C(F)(F)F)c3)ccc2Cl)cc1 [compound 148, 1-(3,5-bis(trifluoromethyl)phenyl)-3-(4-chloro-3-(4-cyanophenoxy)phenyl) urea]	220 nM
136.00 ± 9.09 % of control	N#Cc1ccc(Oc2cc(NC(=O)Nc3cccc(C(F)(F)F)c3)ccc2F)cc1 [compound 151, 1-(3-(4-cyanophenoxy)-4-fluorophenyl)-3-(3-(trifluoromethyl)phenyl)urea]	590 nM
